Calls of active or inactive are those of the source. The calls are words filed in the database; no cut-off is given here. Peptide text beside a SMILES is read from it. * marks the point of attachment. Fmoc = O=C(OCC1c2ccccc2-c2ccccc21)*
How the values were obtained:
Assay type in all cases: nucleic-acid assay
[1] = tested on: Nucleic Acid; assay: Induction of Escherichia coli pUC18 DNA cleavage assessed as formation of open circular DNA at 200 uM after 48 hrs by agarose gel electrophoresis
[2] = tested on: Nucleic Acid; assay: Displacement of ethidium bromide from calf thymus DNA after 1 min by fluorimetry; conditions: Bos taurus
[3] = tested on: Nucleic Acid; assay: Induction of Escherichia coli pUC18 DNA cleavage assessed as formation of open circular DNA at 200 uM from 6 to 48 hrs by agarose gel electrophoresis
[4] = tested on: Nucleic Acid; assay: Induction of Escherichia coli pUC18 DNA cleavage assessed as formation of open circular DNA at 200 uM after 48 hrs by agarose gel electrophoresis in presence of EDTA
[5] = tested on: Nucleic Acid; assay: Induction of Escherichia coli pUC18 DNA cleavage assessed as formation of open circular DNA at 200 uM after 48 hrs by agarose gel electrophoresis in presence of singlet oxygen radical scavenger NaN3
[6] = tested on: Nucleic Acid; assay: Induction of Escherichia coli pUC18 DNA cleavage assessed as formation of open circular DNA at 200 uM after 48 hrs by agarose gel electrophoresis in presence of […]
[7] = tested on: Nucleic Acid; assay: Induction of Escherichia coli pUC18 DNA cleavage assessed as formation of open circular DNA at 200 uM after 48 hrs by agarose gel electrophoresis in presence of hydroxyl radical scavenger t-BuOH
[8] = tested on: Nucleic Acid; assay: Induction of Escherichia coli pUC18 DNA cleavage assessed as formation of open circular DNA at 200 uM after 48 hrs by agarose gel electrophoresis in presence of hydroxyl radical scavenger DMSO
[9] = tested on: Nucleic Acid; assay: Induction of Escherichia coli pUC18 DNA cleavage assessed as formation of linear DNA at 200 uM after 48 hrs by agarose gel electrophoresis
[10] = tested on: Nucleic Acid; assay: Induction of Escherichia coli pUC18 DNA cleavage assessed as formation of linear DNA at 50 to 500 uM after 48 hrs by agarose gel electrophoresis

SMILES | Activity [1] | Kapp [2] [×10⁴ /M] | other results
COC(=O)[C@H](Cc1c[nH]c2ccccc12)NC(=O)[C@H](CC(C)C)NC(=O)CN1CCCNCCCNCCC1 | 50% | 4.7 | –
COC(=O)CNC(=O)[C@@H](N)CC(C)C (H-Leu-Gly-OMe) | inactive | – | –
COC(=O)[C@H](C)NC(=O)[C@H](CC(C)C)NC(=O)CN1CCCNCCCNCCC1 | 50% | 5.9 | Activity [3]: Active; Activity [4]: Active; Activity [5]: Active; Activity [6]: Active; Activity [7]: Active; Activity [8]: Active; Activity [9]: inactive; Activity [10]: Active
COC(=O)CNC(=O)[C@H](CC(C)C)NC(=O)CN1CCCNCCCNCCC1 | 50% | 4 | –
COC(=O)[C@H](Cc1c[nH]c2ccccc12)NC(=O)[C@@H](N)CC(C)C | inactive | – | –
COC(=O)[C@H](CO)NC(=O)[C@H](CC(C)C)NC(=O)CN1CCCNCCCNCCC1 | 50% | 7.2 | –
COC(=O)[C@H](CCCCN)NC(=O)[C@H](CC(C)C)NC(=O)CN1CCCNCCCNCCC1 | 50% | 7.1 | Activity [3]: Active; Activity [4]: Active; Activity [5]: Active; Activity [6]: Active; Activity [7]: Active; Activity [8]: Active; Activity [10]: Active
COC(=O)[C@H](C)NC(=O)[C@@H](N)CC(C)C (H-Leu-Ala-OMe) | inactive | – | –
COC(=O)[C@H](Cc1ccc(O)cc1)NC(=O)[C@H](CC(C)C)NC(=O)CN1CCCNCCCNCCC1 | 50% | 6.4 | –
COC(=O)[C@H](Cc1ccccc1)NC(=O)[C@@H](N)CC(C)C (H-Leu-Phe-OMe) | inactive | – | –
COC(=O)[C@H](CO)NC(=O)[C@@H](N)CC(C)C (H-Leu-Ser-OMe) | inactive | – | –
COC(=O)[C@H](Cc1ccc(O)cc1)NC(=O)[C@@H](N)CC(C)C (H-Leu-Tyr-OMe) | inactive | – | –
COC(=O)CNC(=O)CNC(=O)CN1CCCNCCCNCCC1 | 50% | 4.2 | –
COC(=O)CNC(=O)CN | inactive | – | –
COC(=O)[C@H](CCCCNC(=O)OCC1c2ccccc2-c2ccccc21)NC(=O)[C@@H](N)CC(C)C (H-Leu-Lys(Fmoc)-OMe) | inactive | – | –
COC(=O)[C@H](Cc1ccccc1)NC(=O)[C@H](CC(C)C)NC(=O)CN1CCCNCCCNCCC1 | 50% | 6.6 | –
